Laboratory results from article PMC12750270, “Design and Preclinical Evaluation of a ^68Ga-Labeled Macrocyclic Peptide PET Probe Targeting Transferrin Receptor 1 in Colorectal Cancer” (ACS Omega, 2025).

Tests used:
human TfR1 = biological target: T1, human TfR1 (Homo sapiens, UniProt P02786); assay: Surface plasmon resonance (SPR) binding affinity assay, Biacore 8K; details: recombinant human TfR1-Fc immobilized, read-out: association rate constant (Ka)
T1 construct: Fc; purchased Acro Biosystems TFR-H5264
T1 sequence (P02786 whole entry): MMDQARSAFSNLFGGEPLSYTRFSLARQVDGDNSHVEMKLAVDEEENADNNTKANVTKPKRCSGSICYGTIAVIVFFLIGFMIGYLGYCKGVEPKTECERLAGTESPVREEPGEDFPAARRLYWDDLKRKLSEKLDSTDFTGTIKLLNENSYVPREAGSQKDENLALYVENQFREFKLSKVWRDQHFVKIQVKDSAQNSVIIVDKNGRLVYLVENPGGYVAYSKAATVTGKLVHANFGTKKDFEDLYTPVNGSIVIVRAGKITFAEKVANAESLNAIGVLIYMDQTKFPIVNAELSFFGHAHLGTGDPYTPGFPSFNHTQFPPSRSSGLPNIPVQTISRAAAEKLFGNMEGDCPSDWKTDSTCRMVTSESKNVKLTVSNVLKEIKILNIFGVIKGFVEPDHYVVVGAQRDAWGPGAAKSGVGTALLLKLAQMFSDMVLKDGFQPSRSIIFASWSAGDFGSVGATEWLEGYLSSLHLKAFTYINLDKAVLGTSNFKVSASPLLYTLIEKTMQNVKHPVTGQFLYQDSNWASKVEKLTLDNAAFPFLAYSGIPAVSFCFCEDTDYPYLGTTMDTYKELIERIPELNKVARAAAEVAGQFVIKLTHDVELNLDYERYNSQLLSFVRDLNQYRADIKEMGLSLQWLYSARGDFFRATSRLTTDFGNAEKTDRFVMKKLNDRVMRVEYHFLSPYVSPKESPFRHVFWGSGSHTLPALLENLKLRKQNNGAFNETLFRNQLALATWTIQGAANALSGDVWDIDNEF
Description: 1 (A) Synthetic scheme for^68 Ga-NOTA-TR01; (B) ESI-MS analysis of TR01; (C) Binding response (nm) between human TfR1 and varying concentrations (62.5–1,000 nM) of TR01; (D, E) Stability assessment of ^68 Ga-NOTA-TR01 in PBS and serum at 37 °C, measured by radio-HPLC.
SPR was employed to quantify the binding interaction between TR01 and TfR1.
The binding affinity of NOTA-TR01 to human TfR1 was evaluated by surface plasmon resonance (SPR) using a Biacore 8K system (Cytiva, USA) at Nanjing Genscript Probio. Recombinant human TfR1-Fc protein (TFR-H5264, Acro Biosystems) was immobilized on the sensor chip for kinetic analysis. The assay was performed under acidic conditions (pH 2.0) using a running buffer containing […]. Real-time binding data were collected at a 1:1 ligand-to-analyte ratio. The equilibrium dissociation constant (KD) was calculated by globally fitting the association and dissociation curves.

LOVO cells (TfR1 low) = assay: Cellular binding assay in LOVO cells; format: cell-based, human; details: 37 °C, 37 kBq, γ-counter, triplicate
Description: (§1) The percentage of added dose per 5 × 10^5 cells (%AD/5 × 10^5 cells) was as follows: at 30 min: 5.44 ± 0.12% (HT29) vs 2.63 ± 0.09% (LOVO), at 60 min: 6.36 ± 0.05% (HT29) vs 3.19 ± 0.23% (LOVO), at 120 min: 9.56 ± 0.17% (HT29) vs 4.51 ± 0.22% (LOVO).
(§2) The cell-specific binding of ^68Ga-NOTA-TR01 was evaluated in HT29 and LOVO cells. Cells were seeded in 12-well plates (5 × 10^5 cells/well) and cultured for 24 h under standard conditions (37 °C, 5% CO2). After washing with cold PBS, cells were incubated with 1 mL serum-free medium containing ^68Ga-NOTA-TR01 (37 kBq, ∼[…] corresponding to approximately 0.4 pmol of peptide). For blocking studies, parallel wells were pretreated with a 1,000-fold molar excess (3.3 nmol, 1 μg) of unlabeled TR01 peptide. Cellular binding was assessed at 0.5, 1, 2, and 4 h postincubation. Following incubation, cells were washed twice with ice-cold PBS, lysed in 1 M NaOH, and the associated radioactivity was measured using a γ-counter. Radioactivity data were corrected for decay using the ^68Ga decay constant (λ = 0.00876 min^– 1). Each condition was measured in triplicate for statistical accuracy.

[1] = format: physicochemical; details: 37 °C, 24 h, ∼3.7 MBq in 200 μL, radio-HPLC
Description: Collectively, these findings confirmed the suitability of ^68Ga-NOTA-TR01 for further preclinical applications.
[…] At each time point, radiochemical integrity was assessed via radio-HPLC by comparing the retention time of the incubated samples with that of a nonincubated control.

in vivo = assay: in vivo; set-up: species or system BALB/c nude mice; details: BALB/c nude, mouse, iv, total radioactivity
Description: Three mice were included at each time point; %ID/g is the percentage of injected dose per gram of tissue.
Xenograft tumor models were established by subcutaneously injecting 1 × 10^7 LOVO or HT29 cells (in 100 μL PBS) into the right flank of 5–6-week-old BALB/c nude mice (purchased from Hangzhou Ziyuan Experimental Animal Technology). Tumor growth was monitored by caliper measurement, and imaging experiments were initiated once tumors reached a volume of 100–300 mm^3. All animal procedures were conducted in accordance with the institutional guidelines of the Animal Care and Use Committee at Soochow University.
A comparative biodistribution study was conducted in BALB/c nude mice (n = 3 per group), each intravenously injected with ^68Ga-NOTA-TR01 (1.85 ± 0.49 MBq, corresponding to ∼0.15 nmol peptide, in 100 μL saline). At 30-, 60-, and 120 min postinjection, mice were euthanized for terminal blood collection and organ harvesting. For blocking studies, an additional cohort was sacrificed at 60 min following coinjection with cold NOTA-TR01 (300 μg, ∼0.1 μmol per mouse). Excised tissues were perfused three times with PBS to remove residual blood, weighed, and their radioactivity quantified using a γ-counter. The biodistribution of the radiotracer was expressed as %ID/g. Tumor-to-background ratios (TBRs) were calculated to assess tracer specificity.

physchem = format: physicochemical
Description: The molar activity was determined to be greater than 20 GBq/μmol. The log P was calculated as −1.709 ± 0.121 (n = 6), indicating a hydrophilic profile.
The lipophilicity of ^68Ga-NOTA-TR01 was determined via a standard octanol–water partition method. A solution of ^68Ga-NOTA-TR01 [5 μL, 0.74 MBq in phosphate-buffered saline (PBS)] was mixed with 0.5 mL n-octanol and 0.495 mL PBS. The biphasic system was vortexed for 3 min and centrifuged at 4,000 rpm for 5 min to achieve phase separation. Aliquots (100 μL) from each layer were sampled, and radioactivity was measured using a γ-counter. The log P was calculated using the formula: log P = log (cpm_octanol/cpm_PBS).

HT29 cells (TfR1 high) = assay: Cellular binding/blocking assay in HT29 cells; format: cell-based, human; details: for cellular binding: HT29, 37 °C, 37 kBq, γ-counter, triplicate
Description: as §1, §2

Row | Structure (SMILES) | kon (human TfR1) | cellular binding (LOVO cells (TfR1 low); 30 min) | cellular binding (LOVO cells (TfR1 low); 60 min) | cellular binding (LOVO cells (TfR1 low); 120 min) | radiochemical integrity after incubation in PBS [1] | tissue to tissue ratio at 2 h (in vivo) | logD (physchem) | cellular binding (HT29 cells (TfR1 high); 30 min) | cellular binding (HT29 cells (TfR1 high); 60 min) | cellular binding (HT29 cells (TfR1 high); 120 min) | cellular binding, blocking group (HT29 cells (TfR1 high); HT29, preincubation with 1,000-fold molar excess of unlabeled TR01, 30 min) | cellular binding, blocking group (HT29 cells (TfR1 high); HT29, preincubation with 1,000-fold molar excess of unlabeled TR01, 60 min) | cellular binding, blocking group (HT29 cells (TfR1 high); HT29, preincubation with 1,000-fold molar excess of unlabeled TR01, 120 min) | inhibition of cell binding by cold peptide (HT29 cells (TfR1 high); HT29 cells, cold peptide)
1 | CC[C@H](C)[C@@H]1NC(=O)[C@H](Cc2ccc(O)cc2)NC(=O)[C@H](Cc2ccc(O)cc2)NC(=O)[C@H](CC(N)=O)NC(=O)[C@H](Cc2c[nH]c3ccccc23)NC(=O)[C@H](C(C)C)NC(=O)[C@H](Cc2ccccc2)NC(=O)[C@H](C(C)C)NC(=O)[C@H](C)NC(=O)CSC[C@@H](C(=O)NCCOCCOCCOCCOCCOCCOCCOCCOCCOCCOCCOCCOCCC(=O)N[C@@H](CCCCNC(=O)CN2CCN(CC(=O)O)CCN(CC(=O)O)CC2)C(=O)O)NC(=O)[C@H](Cc2ccc(O)cc2)N(C)C(=O)[C@H](Cc2ccc(O)cc2)NC(=O)[C@H](CCCNC(=N)N)NC(=O)[C@H](CCCNC(=N)N)NC(=O)[C@H]([C@@H](C)CC)NC1=O [NOTA-TR01, cyclo(Ac-Ala-Val-Phe-Val-Trp-Asn-Tyr-Tyr-Ile-Ile-Arg-Arg-Tyr-NMe-Tyr-Cys)-PEG12-Lys-NOTA] | 77300 M⁻¹ s⁻¹ |  |  |  |  |  |  |  |  |  |  |  |  | 
2 | CC[C@H](C)[C@@H]1NC(=O)[C@H](Cc2ccc(O)cc2)NC(=O)[C@H](Cc2ccc(O)cc2)NC(=O)[C@H](CC(N)=O)NC(=O)[C@H](Cc2c[nH]c3ccccc23)NC(=O)[C@H](C(C)C)NC(=O)[C@H](Cc2ccccc2)NC(=O)[C@H](C(C)C)NC(=O)[C@H](C)NC(=O)CSC[C@@H](C(=O)NCCOCCOCCOCCOCCOCCOCCOCCOCCOCCOCCOCCOCCC(=O)N[C@@H](CCCCNC(=O)CN2CCN(CC(=O)O)CCN(CC(=O)O)CC2)C(=O)O)NC(=O)[C@H](Cc2ccc(O)cc2)N(C)C(=O)[C@H](Cc2ccc(O)cc2)NC(=O)[C@H](CCCNC(=N)N)NC(=O)[C@H](CCCNC(=N)N)NC(=O)[C@H]([C@@H](C)CC)NC1=O [^68Ga-NOTA-TR01, metal not drawn] |  | 2.63 ± 0.09 %AD/5 × 10^5 cells | 3.19 ± 0.23 %AD/5 × 10^5 cells | 4.51 ± 0.22 %AD/5 × 10^5 cells | > 98% | > 7 | -1.71 ± 0.121 | 5.44 ± 0.12 %AD/5 × 10^5 cells | 6.36 ± 0.05 %AD/5 × 10^5 cells | 9.56 ± 0.17 %AD/5 × 10^5 cells | 1.58 ± 0.06% | 1.34 ± 0.29% | 1.27 ± 0.09% | over 85%
